Measurements taken from US8993612B2, “Modulators of calcium release-activated calcium channel and methods for treatment of non-small cell lung cancer” (Rhizen Pharmaceuticals SA, priority 2009, dated 2015).
Structures can show the parent of a compound that is named as a salt.

Experiments:
[1] = biological target: CRAC channels (Homo sapiens (Human), UniProt Q96D31); assay: In-vitro CRAC channel inhibition assay in Jurkat cells (thapsigargin-induced calcium influx); type: cell-based
Protocol: Inhibition of CRAC channels was determined following thapsigargin (Sigma, Cat # T9033) induced endoplasmic calcium release in Jurkat cells. (see Yasurio Yonetoky et. al Bio. & Med. Chem. 14 (2006) 4750-4760). Cells were centrifuged and resuspended in equal volumes ° f Ca^2+ and Mg^2+ free Hanks buffer and Fluo-8 NW dye (ABD Bioquest, Inc., Sunnyvale, Calif.) loading solution at 2×10^5 cells/100 μl/well in 96-well black plate. Plate is incubated at 37° C./5% CO2 for 30 mM followed by further 15 mM incubation at room temperature. Test compounds (DMSO stocks diluted in Ca^2+ and Mg^2+ free Hanks buffer) at desired concentrations were added to the wells and incubated for […]. Thapsigargin (1 μM final concentration) was added to the wells and incubated for 15 min to inhibit the Sarco-endoplasmic reticulum Ca^2+ ATPase pump thereby depleting endoplasmic calcium and raising cytosolic calcium concentrations. Store-operated calcium entry was initiated by adding extracellular Ca^2+ to a final concentration of 1.8 mM. Fluorescence was monitored over […] on a plate reader (BMG Labtech., Germany) with excitation at 485 nm and an emission wavelength at 520 nm. Data were analyzed using GraphPad Prism. IC50 for each compound was determined based on the percent inhibition of thapsigargin-induced calcium influx into cells.

[2] = test system: NCI-H460 cells; assay: In-vitro cell proliferation assay in NCI-H460 cancer cell line (MTT); type: cell-based, human; conditions: Homo sapiens; for inhibition at 10 µM: NCI-H460, 10 μM, 48 h; for IC50: NCI-H460, 48 h, read-out: NCI-H460 Cell line assay G1 50 nM
Protocol: Growth inhibition assays were carried out using 10% FBS supplemented media. Cells were seeded at a concentration of 5000 cells/well in a 96-well plate. Test compound at a concentration range from 0.01 to 10000 nM were added after 24 h. Growth was assessed using the 3-[4,5-dimethylthiazol-2-yl]-2,5-diphenyltetrazolium bromide (MTT) dye reduction test at 0 h (prior to the addition of the test compound) and 48 h after the addition of test compound. Absorbance was read on a Fluostar Optima (BMG Labtech, Germany) at a wave length of 450 nm. Data were analysed using GraphPad Prism. IC-50 for each compound was determined based on the % inhibition due to the test compound compared to the control.
For methods of cell proliferation assay, see, for example, Mosmann. T., Journal of Immunological Methods, 65(1-2), 55-63, (1983).
The effect of CRAC and/or STIM protein on the proliferation and viability of lung cancer cells was determined as follows.
For Methodology Refer 1C.

Sequence of CRAC channels (Q96D31 whole entry): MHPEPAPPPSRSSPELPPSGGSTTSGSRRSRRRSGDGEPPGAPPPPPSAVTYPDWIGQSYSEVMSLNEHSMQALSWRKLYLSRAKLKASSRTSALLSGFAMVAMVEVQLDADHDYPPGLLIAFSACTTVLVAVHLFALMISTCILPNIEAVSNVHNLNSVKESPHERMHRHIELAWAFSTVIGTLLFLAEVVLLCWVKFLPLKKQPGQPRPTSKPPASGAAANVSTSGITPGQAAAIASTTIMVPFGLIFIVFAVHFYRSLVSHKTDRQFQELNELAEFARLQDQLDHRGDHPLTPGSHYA

SMILES | inhibition at 1 µM ([1]; 1 uM) [%] | other results
O=C(Nc1ccc(-n2nc(C3CC3)cc2C2CC2)cc1)c1ccc2nc[nH]c2c1 [Example 1, N-[4-(3,5-dicyclopropyl-1H-pyrazol-1-yl)phenyl]-1H-benzo[d]imidazole-6-carboxamide] | 57.6 | 
O=C(Cc1c[nH]c2ccccc12)Nc1ccc(-n2nc(C3CC3)cc2C2CC2)cc1 [Example 7, N-[4-(3,5-dicyclopropyl-1H-pyrazol-1-yl)phenyl]-2-(1H-indol-3-yl)acetamide] | 36.8 | 
O=C(Cc1cn2ccccc2n1)Nc1ccc(-n2nc(C3CC3)cc2C2CC2)cc1 [Example 8, N-[4-(3,5-dicyclopropyl-1H-pyrazol-1-yl)phenyl]-2-(imidazo[1,2-a]pyridin-2-yl)acetamide Hydrochloride] | 17.9 | 
O=C(Cn1nnc2ccccc21)Nc1ccc(-n2nc(C3CC3)cc2C2CC2)c(F)c1 [Example 11, 2-(1H-benzo[d][1,2,3]triazol-1-yl)-N-(4-(3,5-dicyclopropyl-1H-pyrazol-1-yl)-3-fluorophenyl)acetamide] | 78.6 | 
O=C(Cc1ccc2ncccc2c1)Nc1ccc(-n2nc(C3CC3)cc2C2CC2)c(F)c1 [Example 12, N-[4-(3,5-dicyclopropyl-1H-pyrazol-1-yl)-3-fluorophenyl]-2-(quinolin-6-yl)acetamide Hydrochloride] | 100 | IC50 [1]: 0.263 µM; inhibition at 10 µM [2]: 90%; IC50 [2]: 0.1 µM
O=C(Nc1ccc(-n2nc(C3CC3)cc2C2CC2)nc1)c1ccc2ncccc2c1 [Example 13, N-[6-(3,5-dicyclopropyl-1H-pyrazol-1-yl)pyridin-3-yl]quinoline-6-carboxamide Dihydrochloride] | 22.4 | 
O=C(Nc1ccc(-n2nc(C3CC3)cc2C2CC2)nc1)c1ccc2nccnc2c1 [Example 14, N-[6-(3,5-dicyclopropyl-1H-pyrazol-1-yl)pyridin-3-yl]quinoxaline-6-carboxamide] | 17.8 | 
O=C(Cn1nnc2ccccc21)Nc1ccc(-n2nc(C3CC3)cc2C2CC2)nc1 [Example 15, 2-(1H-benzo[d][1,2,3]triazol-1-yl)-N-[6-(3,5-dicyclopropyl-1H-pyrazol-1-yl)pyridin-3-yl]acetamide] | 3.93 | 
Cl.Cl.O=C(Cc1ccc2ncccc2c1)Nc1ccc(-n2nc(C3CC3)cc2C2CC2)nc1 [Example 16, N-[6-(3,5-dicyclopropyl-1H-pyrazol-1-yl)pyridin-3-yl]-2-(quinolin-6-yl)acetamidedihydrochloride] |  | % inhibition (1 uM) ([1]; 1 uM): 30.81%
O=C(Nc1ccc(-n2nc(C(F)(F)F)cc2C2CC2)cc1)c1ccc2nccnc2c1 [Example 18, N-{4-[5-cyclopropyl-3-(trifluoromethyl)-1H-pyrazol-1-yl]phenyl}quinoxaline-6-carboxamide] | 96.6 | IC50 [1]: 0.0534 µM
O=C(Cn1nc2ccccc2n1)Nc1ccc(-n2nc(C(F)(F)F)cc2C2CC2)cc1 [Example 21, 2-(2H-benzo[d][1,2,3]triazol-2-yl)-N-{4-[5-cyclopropyl-3-(trifluoromethyl)-1H-pyrazol-1-yl]phenyl}acetamide] | 83 | IC50 [1]: 0.139 µM
O=C(Cn1nnc2cccnc21)Nc1ccc(-n2nc(C(F)(F)F)cc2C2CC2)cc1 [Example 22, 2-(3H-[1,2,3]triazolo[4,5-b]pyridin-3-yl)-N-{4-[5-cyclopropyl-3-(trifluoromethyl)-1H-pyrazol-1-yl]phenyl}acetamide] | 30.9 | 
C[C@@H](C(=O)Nc1ccc(-n2nc(C(F)(F)F)cc2C2CC2)cc1)n1nnc2cccnc21 [Example 23, (S)-2-(3H-[1,2,3]triazolo[4,5-b]pyridin-3-yl)-N-{4-[5-cyclopropyl-3-(trifluoromethyl)-1H-pyrazol-1-yl]phenyl}propanamide] | 69.9 | 
Nc1ncnc2c1ncn2CC(=O)Nc1ccc(-n2nc(C(F)(F)F)cc2C2CC2)cc1 [Example 24, 2-(6-amino-9H-purin-9-yl)-N-{4-[5-cyclopropyl-3-(trifluoromethyl)-1H-pyrazol-1-yl]phenyl}acetamide] | 14.8 | inhibition at 10 µM [2]: 84.4%
Cn1c(=O)c2c(ncn2CC(=O)Nc2ccc(-n3nc(C(F)(F)F)cc3C3CC3)cc2)n(C)c1=O [Example 25, N-(4-(5-cyclopropyl-3-(trifluoromethyl)-1H-pyrazol-1-yl)phenyl)-2-(1,3-dimethyl-2,6-dioxo-2,3-dihydro-1H-purin-7(6H)-yl)acetamide] | 39.1 | 
O=C(Cc1cn2ccccc2n1)Nc1ccc(-n2nc(C(F)(F)F)cc2C2CC2)cc1 [Example 26, N-{4-[5-cyclopropyl-3-(trifluoromethyl)-1H-pyrazol-1-yl)phenyl)-2-(imidazo[1,2-a]pyridin-2-yl)acetamide Hydrochloride] | 30.9 | 
CC(C(=O)Nc1ccc(-n2nc(C(F)(F)F)cc2C2CC2)cc1)c1ccc2ncccc2c1 (stereo not shown) [Example 28, N-{4-[5-cyclopropyl-3-(trifluoromethyl)-1H-pyrazol-1-yl]phenyl}-2-(quinolin-6-yl)propanamide Hydrochloride] | 0 | 
O=C(Nc1ccc(-n2nc(C(F)(F)F)cc2C2CC2)c(F)c1)c1ccc2nn[nH]c2c1 [Example 29, N-{4-[5-cyclopropyl-3-(trifluoromethyl)-1H-pyrazol-1-yl]-3-fluorophenyl}-1H-benzo[d][1,2,3]triazole-6-carboxamide] | 81.1 | inhibition at 10 µM [2]: 100%; IC50 [2]: 1.52 µM
O=C(Cn1nnc2ccccc21)Nc1ccc(-n2nc(C(F)(F)F)cc2C2CC2)c(F)c1 [Example 30, 2-(1H-benzo[d][1,2,3]triazol-1-yl)-N-{4-[5-cyclopropyl-3-(trifluoromethyl)-1H-pyrazol-1-yl]-3-fluorophenyl}acetamide] | 100 | IC50 [1]: 0.161 µM
O=C(Nc1ccc(-n2nc(C(F)(F)F)cc2C2CC2)nc1)c1ccc2[nH]nnc2c1 [Example 31, N-{6-[5-cyclopropyl-3-(trifluoromethyl)-1H-pyrazol-1-yl]pyridin-3-yl}-1H-benzo[d][1,2,3]triazole-5-carboxamide] | 50.6 | 
O=C(Cn1nnc2ccccc21)Nc1ccc(-n2nc(C(F)(F)F)cc2C2CC2)nc1 [Example 32, 2-(1H-benzo[d][1,2,3]triazol-1-yl)-N-{6-[5-cyclopropyl-3-(trifluoromethyl)-1H-pyrazol-1-yl]pyridin-3-yl}acetamide] | 41.2 | 
O=C(Cn1nc2ccccc2n1)Nc1ccc(-n2nc(C(F)(F)F)cc2C2CC2)nc1 [Example 33, 2-(2H-benzo[d][1,2,3]triazol-2-yl)-N-{6-[5-cyclopropyl-3-(trifluoromethyl)-1H-pyrazol-1-yl]pyridin-3-yl}acetamide] | 49.5 | 
O=C(Cc1ccc2ncccc2c1)Nc1ccc(-n2nc(C(F)(F)F)cc2C2CC2)nc1 [Example 34, N-{6-[5-cyclopropyl-3-(trifluoromethyl)-1H-pyrazol-1-yl]pyridin-3-yl}-2-(quinolin-6-yl)acetamide hydrochloride] | 51.2 | inhibition at 10 µM [2]: 82.7%; IC50 [2]: 0.628 µM
O=C(Cn1nnc2ccccc21)Nc1ccc(-n2nc(C(F)(F)F)c(Cl)c2C2CC2)nc1 [Example 35, 2-(1H-benzo[d][1,2,3]triazol-1-yl)-N-{6-[4-chloro-5-cyclopropyl-3-(trifluoromethyl)-1H-pyrazol-1-yl]pyridin-3-yl}acetamide] | 15 | 
O=C(NCc1ccc2ncccc2c1)c1ccc(-n2nc(C(F)(F)F)cc2C2CC2)c(F)c1 [Example 36, 4-[5-cyclopropyl-3-(trifluoromethyl)-1H-pyrazol-1-yl]-3-fluoro-N-(quinolin-6-ylmethyl)benzamide hydrochloride] | 51 | 
O=C(Nc1ccc(-n2nc(C3CC3)cc2C2CC2)cc1)Nc1ccc2ncccc2c1 [Example 37, 1-[4-(3,5-dicyclopropyl-1H-pyrazol-1-yl)phenyl]-3-(quinolin-6-yl)urea] | 57.3 | 
